{"source": "patent US8492328B2", "about": "“Biomarkers and methods for determining sensitivity to insulin growth factor-1 receptor modulators” (Bristol-Myers Squibb Company, priority 2007, dated 2013)", "test_in_all_cases": "In vitro cellular proliferation assay ([3H]-thymidine incorporation)", "assay_type_in_all_cases": "cell-based, human", "key": {"SW-684": {"test_system": "SW-684", "settings": "SW-684 (Fibrosarcoma)", "experimental": "(§1) All pediatric sarcoma and neuroblastoma cell lines were obtained from Dr. Lee Helman at NIH. All cell lines were grown in RPMI medium supplemented with Glutamax (Gibco/Invitrogen #61870-036), 10% inactivated fetal bovine serum (Gibco/Invitrogen #16140-071), 10 mM Hepes, penicillin and streptomycin.\n(§2) Cells were plated at an optimized density for each cell line per well in 96-well microtiter Falcon plates, incubated overnight, and then exposed to a serial dilution of drug. After 72 hours incubation with drug at 37° C., cells were pulsed with 4 μCi/ml [6-3H] thymidine (Amersham Pharmacia Biotech, UK) for 3 hours, trypsinized, harvested onto UniFilter-96, GF/B plates (PerkinElmer, Boston, Mass.) and scintillation was measured on a TopCount NXT (Packard, Conn.). Results were expressed as an IC50, which is the drug concentration required to inhibit cell proliferation by 50% to that of untreated control cells. The mean IC50 and standard deviation (SD) from multiple tests for each cell line were calculated."}, "JD": {"test_system": "JD", "experimental": "as §1, §2"}, "KAG": {"test_system": "KAG", "settings": "KAG (Ewing)", "experimental": "as §1, §2"}, "H513": {"test_system": "H513", "settings": "H513 (Melignant Pleural Mesothelioma)", "experimental": "as §1, §2"}, "RDES": {"test_system": "RDES", "settings": "RDES (Ewing)", "experimental": "as §1, §2"}, "LAN-1": {"test_system": "LAN-1", "settings": "LAN-1 (Neuroblastoma)", "experimental": "as §1, §2"}, "SHSY5Y": {"test_system": "SHSY5Y", "settings": "SHSY5Y (Neuroblastoma)", "experimental": "as §1, §2"}, "Rh41": {"test_system": "Rh41", "settings": "Rh41 (Rhabdomyosarcoma)", "experimental": "as §1, §2"}, "SK-LMS-1": {"test_system": "SK-LMS-1", "settings": "SK-LMS-1 (Leiomyosarcoma)", "experimental": "as §1, §2"}, "H211": {"test_system": "H211", "settings": "H211 (Melignant Pleural Mesothelioma)", "experimental": "as §1, §2"}, "SK-NSH": {"test_system": "SK-NSH", "settings": "SK-NSH (Neuroblastoma)", "experimental": "as §1, §2"}, "Rh1": {"test_system": "Rh1", "settings": "Rh1 (Rhabdomyosarcoma)", "experimental": "as §1, §2"}, "LG": {"test_system": "LG", "settings": "LG (Ewing)", "experimental": "as §1, §2"}, "Rh36": {"test_system": "Rh36", "settings": "Rh36 (Rhabdomyosarcoma)", "experimental": "as §1, §2"}, "SA-4": {"test_system": "SA-4", "settings": "SA-4 (Liposarcoma)", "experimental": "as §1, §2"}, "HTB-92": {"test_system": "HTB-92", "settings": "HTB-92 (Liposarcoma)", "experimental": "as §1, §2"}, "HT1080/S": {"test_system": "HT1080/S", "settings": "HT1080/S (Fibrosarcoma)", "experimental": "as §1, §2"}, "VW": {"test_system": "VW", "settings": "VW (Ewing)", "experimental": "as §1, §2"}, "IMR-32": {"test_system": "IMR-32", "settings": "IMR-32 (Neuroblastoma)", "experimental": "as §1, §2"}, "TC32": {"test_system": "TC32", "settings": "TC32 (Ewing)", "experimental": "as §1, §2"}, "H2595": {"test_system": "H2595", "settings": "H2595 (Melignant Pleural Mesothelioma)", "experimental": "as §1, §2"}, "H2052": {"test_system": "H2052", "settings": "H2052 (Melignant Pleural Mesothelioma)", "experimental": "as §1, §2"}, "SK-NAS": {"test_system": "SK-NAS", "experimental": "as §1, §2"}, "ME": {"test_system": "ME", "settings": "ME (Rhabdomyosarcoma)", "experimental": "as §1, §2"}, "CTR": {"test_system": "CTR", "experimental": "as §1, §2"}, "Rh4": {"test_system": "Rh4", "settings": "Rh4 (Rhabdomyosarcoma)", "experimental": "as §1, §2"}, "[1]": {"settings": "Homo sapiens, 72 hours with drug, read-out: IC50"}}}
{"compound": "Cc1cc(N2CCOCC2)cc2[nH]c(-c3c(NC[C@@H](O)c4cccc(Cl)c4)cc[nH]c3=O)nc12", "note": "[Compound 1, (S)-4-(2-(3-chlorophenyl)-2-hydroxyethylamino)-3-(4-methyl-6-morpholino-1H-benzo[d]imidazol-2-yl)-pyridin-2(1-H)-one]", "values": [{"measurement": "IC50", "setting": "SW-684; Homo sapiens, SW684, 72 hours with drug, read-out: IC50", "value": 5000, "unit": "nM"}, {"measurement": "Sensitivity Classification", "setting": "SW-684", "value": "R (“R” means resistant to the corresponding compounds.)"}, {"measurement": "IC50", "setting": "JD; Homo sapiens, JD (Ewing), 72 hours with drug, read-out: IC50", "value": 232, "unit": "nM"}, {"measurement": "sensitivity/resistance classification in words", "setting": "JD; JD", "value": "resistant"}, {"measurement": "Sensitivity Classification", "setting": "JD; JD (Ewing)", "value": "S (“S” means sensitive)"}, {"measurement": "IC50", "setting": "KAG; [1]", "value": 2110, "unit": "nM"}, {"measurement": "Sensitivity Classification", "setting": "KAG", "value": "R (“R” means resistant to the corresponding compounds.)"}, {"measurement": "Sensitivity Classification", "setting": "H513", "value": "R (“R” means resistant to the corresponding compounds.)"}, {"measurement": "IC50", "setting": "H513; [1]", "value": 3120, "unit": "nM"}, {"measurement": "IC50", "setting": "RDES; Homo sapiens, RD-ES, 72 hours with drug, read-out: IC50", "value": 123, "unit": "nM"}, {"measurement": "Sensitivity Classification", "setting": "RDES", "value": "S (“S” means sensitive)"}, {"measurement": "IC50", "setting": "LAN-1; Homo sapiens, LAN1, 72 hours with drug, read-out: IC50", "value": 136, "unit": "nM"}, {"measurement": "Sensitivity Classification", "setting": "LAN-1", "value": "S (“S” means sensitive)"}, {"measurement": "IC50", "setting": "SHSY5Y; Homo sapiens, SH-SY5Y, 72 hours with drug, read-out: IC50", "value": 149, "unit": "nM"}, {"measurement": "Sensitivity Classification", "setting": "SHSY5Y", "value": "S (“S” means sensitive)"}, {"measurement": "IC50", "setting": "Rh41; [1]", "value": 69, "unit": "nM"}, {"measurement": "Sensitivity Classification", "setting": "Rh41", "value": "S (“S” means sensitive)"}, {"measurement": "IC50", "setting": "SK-LMS-1; [1]", "value": 500, "unit": "nM"}, {"measurement": "Sensitivity Classification", "setting": "SK-LMS-1", "value": "R (“R” means resistant to the corresponding compounds.)"}, {"measurement": "Sensitivity Classification", "setting": "H211", "value": "R (“R” means resistant to the corresponding compounds.)"}, {"measurement": "IC50", "setting": "H211; Homo sapiens, NCI-H211, 72 hours with drug, read-out: IC50", "value": 418, "unit": "nM"}, {"measurement": "IC50", "setting": "SK-NSH; Homo sapiens, SK-N-SH, 72 hours with drug, read-out: IC50", "value": 196, "unit": "nM"}, {"measurement": "Sensitivity Classification", "setting": "SK-NSH", "value": "S (“S” means sensitive)"}, {"measurement": "IC50", "setting": "Rh1; Homo sapiens, RH-1, 72 hours with drug, read-out: IC50", "value": 135, "unit": "nM"}, {"measurement": "Sensitivity Classification", "setting": "Rh1", "value": "S (“S” means sensitive)"}, {"measurement": "IC50", "setting": "LG; [1]", "value": 63, "unit": "nM"}, {"measurement": "Sensitivity Classification", "setting": "LG", "value": "S (“S” means sensitive)"}, {"measurement": "IC50", "setting": "Rh36; [1]", "value": 1600, "unit": "nM"}, {"measurement": "Sensitivity Classification", "setting": "Rh36", "value": "R (“R” means resistant to the corresponding compounds.)"}, {"measurement": "IC50", "setting": "SA-4; [1]", "value": 779, "unit": "nM"}, {"measurement": "Sensitivity Classification", "setting": "SA-4", "value": "R (“R” means resistant to the corresponding compounds.)"}, {"measurement": "Sensitivity Classification", "setting": "HTB-92", "value": "R (“R” means resistant to the corresponding compounds.)"}, {"measurement": "IC50", "setting": "HTB-92; [1]", "value": 584, "unit": "nM"}, {"measurement": "Sensitivity Classification", "setting": "HT1080/S", "value": "R (“R” means resistant to the corresponding compounds.)"}, {"measurement": "IC50", "setting": "HT1080/S; Homo sapiens, HT-1080, 72 hours with drug, read-out: IC50", "value": 1410, "unit": "nM"}, {"measurement": "IC50", "setting": "VW; [1]", "value": 101, "unit": "nM"}, {"measurement": "Sensitivity Classification", "setting": "VW", "value": "S (“S” means sensitive)"}, {"measurement": "IC50", "setting": "IMR-32; [1]", "value": 277, "unit": "nM"}, {"measurement": "Sensitivity Classification", "setting": "IMR-32", "value": "S (“S” means sensitive)"}, {"measurement": "IC50", "setting": "TC32; Homo sapiens, TC-32, 72 hours with drug, read-out: IC50", "value": 55, "unit": "nM"}, {"measurement": "Sensitivity Classification", "setting": "TC32", "value": "S (“S” means sensitive)"}, {"measurement": "Sensitivity Classification", "setting": "H2595", "value": "R (“R” means resistant to the corresponding compounds.)"}, {"measurement": "IC50", "setting": "H2595; Homo sapiens, NCI-H2595, 72 hours with drug, read-out: IC50", "value": 5000, "unit": "nM"}, {"measurement": "Sensitivity Classification", "setting": "H2052", "value": "R (“R” means resistant to the corresponding compounds.)"}, {"measurement": "IC50", "setting": "H2052; Homo sapiens, NCI-H2052, 72 hours with drug, read-out: IC50", "value": 403, "unit": "nM"}, {"measurement": "IC50", "setting": "SK-NAS; Homo sapiens, SK-N-AS, SK-NAS (Neuroblastoma), 72 hours with drug, read-out: IC50", "value": 192, "unit": "nM"}, {"measurement": "sensitivity/resistance classification in words", "setting": "SK-NAS; SK-NAS", "value": "resistant"}, {"measurement": "Sensitivity Classification", "setting": "SK-NAS; SK-NAS (Neuroblastoma)", "value": "S (“S” means sensitive)"}, {"measurement": "IC50", "setting": "ME; [1]", "value": 163, "unit": "nM"}, {"measurement": "Sensitivity Classification", "setting": "ME", "value": "S (“S” means sensitive)"}, {"measurement": "sensitivity/resistance classification in words", "setting": "CTR; CTR", "value": "resistant"}, {"measurement": "Sensitivity Classification", "setting": "CTR; CTR (Rhabdomyosarcoma)", "value": "R (“R” means resistant to the corresponding compounds.)"}, {"measurement": "IC50", "setting": "CTR; Homo sapiens, CTR (Rhabdomyosarcoma), 72 hours with drug, read-out: IC50", "value": 370, "unit": "nM"}, {"measurement": "IC50", "setting": "Rh4; [1]", "value": 27, "unit": "nM"}, {"measurement": "Sensitivity Classification", "setting": "Rh4", "value": "S (“S” means sensitive)"}]}
